Experimental data reported in the supplement of paper PMC6045584.
± gives the standard deviation of the averaged measurements.

What was measured:
[1] = compound: CNCc1ccc(-c2[nH]c3cc(F)cc4c3c2CCNC4=O)cc1; experiment: surviving fraction relative to DMSO-only wells; higher = less growth inhibition; conditions: exposure time: 5 days
In short: (§1)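 Viability was scored with CellTiter-Glo luminescence and normalised to the median of DMSO-only wells as surviving fraction. Beforehand, log-phase tumour cell lines were seeded at 250–500 cells per well in 384-well plates, allowed 24 hours, and exposed continuously for five days to inhibitors at 0.5, 1, 5, 10, 50, 100, 500 and 1000 nM. Only lines whose three screens gave replicate Pearson r >0.7 and median Z' >0.3 were kept.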

[2] = compound: O=C(c1cc(Cc2n[nH]c(=O)c3ccccc23)ccc1F)N1CCN(C(=O)C2CC2)CC1 [OLAPARIB]; experiment: as above; conditions: exposure time: 5 days
In short: as §1

Test System | surviving fraction ([1]; 0.5 nM) | surviving fraction ([1]; 1 nM) | surviving fraction ([1]; 5 nM) | surviving fraction ([1]; 10 nM) | surviving fraction ([1]; 50 nM) | surviving fraction ([1]; 100 nM) | surviving fraction ([1]; 500 nM) | surviving fraction ([1]; 1000 nM) | surviving fraction ([2]; 0.5 nM) | surviving fraction ([2]; 1 nM) | surviving fraction ([2]; 5 nM) | surviving fraction ([2]; 10 nM) | surviving fraction ([2]; 50 nM) | surviving fraction ([2]; 100 nM) | surviving fraction ([2]; 500 nM) | surviving fraction ([2]; 1000 nM)
JURKAT HAEMATOPOIETIC AND LYMPHOID TISSUE | 1.09 ± 0.018 | 1.1 ± 0.029 | 1.04 ± 0.019 | 1.02 ± 0.024 | 1.01 ± 0.049 | 1.01 ± 0.029 | 0.979 ± 0.021 | 0.916 ± 0.047 | 1.1 ± 0.022 | 1.12 ± 0.03 | 1.08 ± 0.03 | 1.07 ± 0.014 | 1.038 ± 0.0047 | 0.994 ± 0.024 | 1 ± 0.019 | 0.847 ± 0.029
KPD BONE | 0.975 ± 0.058 | 0.983 ± 0.022 | 1.13 ± 0.15 | 1.05 ± 0.028 | 0.956 ± 0.032 | 0.95 ± 0.022 | 0.876 ± 0.022 | 0.732 ± 0.046 | 0.983 ± 0.011 | 0.946 ± 0.024 | 0.969 ± 0.024 | 0.995 ± 0.093 | 0.959 ± 0.059 | 0.965 ± 0.022 | 0.765 ± 0.007 | 0.711 ± 0.033
LM7 BONE | 0.912 ± 0.043 | 0.965 ± 0.015 | 0.986 ± 0.06 | 1.01 ± 0.016 | 0.752 ± 0.042 | 0.679 ± 0.1 | 0.497 ± 0.013 | 0.451 ± 0.0082 | 1 ± 0.081 | 0.976 ± 0.058 | 1.02 ± 0.071 | 0.963 ± 0.015 | 0.812 ± 0.042 | 0.829 ± 0.02 | 0.614 ± 0.0076 | 0.554 ± 0.014
LNCAP PROSTATE | 1.09 ± 0.059 | 1.14 ± 0.038 | 1.01 ± 0.095 | 0.907 ± 0.093 | 1.02 ± 0.047 | 0.946 ± 0.013 | 0.969 ± 0.056 | 0.73 ± 0.057 | 1.09 ± 0.1 | 1.03 ± 0.16 | 1 ± 0.096 | 1.032 ± 0.0049 | 1.12 ± 0.086 | 1.02 ± 0.29 | 0.97 ± 0.061 | 0.82 ± 0.13
MCF7 BREAST | 0.923 ± 0.057 | 0.927 ± 0.072 | 0.921 ± 0.086 | 0.918 ± 0.084 | 0.951 ± 0.058 | 0.93 ± 0.081 | 0.865 ± 0.0098 | 0.924 ± 0.043 | 0.891 ± 0.015 | 0.941 ± 0.014 | 0.946 ± 0.085 | 0.907 ± 0.037 | 0.96 ± 0.039 | 0.906 ± 0.051 | 0.95 ± 0.026 | 0.943 ± 0.043
MDAMB134 BREAST | 0.811 ± 0.061 | 0.818 ± 0.12 | 0.814 ± 0.051 | 0.8795 ± 0.0078 | 0.703 ± 0.19 | 0.764 ± 0.13 | 0.824 ± 0.21 | 0.986 ± 0.4 | 0.96 ± 0.055 | 1.04 ± 0.17 | 1.04 ± 0.13 | 1.05 ± 0.03 | 0.971 ± 0.21 | 0.738 ± 0.042 | 0.8595 ± 0.0035 | 0.823 ± 0.028
MDAMB157 BREAST | 0.959 ± 0.026 | 0.91 ± 0.025 | 1.04 ± 0.053 | 1.03 ± 0.09 | 0.921 ± 0.088 | 1 ± 0.12 | 0.73 ± 0.03 | 0.691 ± 0.015 | 1.01 ± 0.093 | 1.06 ± 0.035 | 0.992 ± 0.085 | 0.968 ± 0.051 | 0.991 ± 0.096 | 0.965 ± 0.043 | 0.903 ± 0.079 | 0.729 ± 0.04
MDAMB231 BREAST | 0.937 ± 0.013 | 0.967 ± 0.027 | 0.971 ± 0.06 | 0.959 ± 0.021 | 0.917 ± 0.015 | 0.891 ± 0.037 | 0.824 ± 0.02 | 0.764 ± 0.0086 | 0.961 ± 0.02 | 0.98 ± 0.031 | 0.974 ± 0.0099 | 0.97 ± 0.029 | 0.929 ± 0.017 | 0.957 ± 0.013 | 0.899 ± 0.015 | 0.807 ± 0.016
MDAMB361 BREAST | 0.709 ± 0.074 | 0.752 ± 0.04 | 0.672 ± 0.041 | 0.69 ± 0.0053 | 0.543 ± 0.065 | 0.615 ± 0.082 | 0.553 ± 0.09 | 0.589 ± 0.063 | 0.82 ± 0.026 | 0.793 ± 0.076 | 0.773 ± 0.094 | 0.767 ± 0.042 | 0.612 ± 0.064 | 0.603 ± 0.048 | 0.577 ± 0.051 | 0.523 ± 0.036
MDAMB436 BREAST | 0.882 ± 0.12 | 0.925 ± 0.083 | 0.874 ± 0.092 | 0.82 ± 0.1 | 0.62 ± 0.11 | 0.587 ± 0.053 | 0.542 ± 0.097 | 0.531 ± 0.064 | 0.888 ± 0.1 | 0.878 ± 0.08 | 0.806 ± 0.056 | 0.795 ± 0.039 | 0.651 ± 0.011 | 0.606 ± 0.022 | 0.537 ± 0.022 | 0.469 ± 0.031
MDAMB453 BREAST | 0.991 ± 0.071 | 1.01 ± 0.096 | 1.05 ± 0.049 | 0.979 ± 0.093 | 0.919 ± 0.062 | 0.957 ± 0.06 | 0.892 ± 0.022 | 0.696 ± 0.017 | 0.989 ± 0.063 | 1 ± 0.036 | 0.989 ± 0.07 | 0.964 ± 0.059 | 0.966 ± 0.042 | 0.936 ± 0.018 | 1.03 ± 0.025 | 0.916 ± 0.025
MDAMB468 BREAST | 0.941 ± 0.048 | 0.89 ± 0.085 | 0.917 ± 0.034 | 0.929 ± 0.056 | 0.8 ± 0.047 | 0.746 ± 0.065 | 0.761 ± 0.048 | 0.609 ± 0.12 | 0.928 ± 0.045 | 0.907 ± 0.026 | 0.935 ± 0.025 | 0.942 ± 0.029 | 0.861 ± 0.031 | 0.849 ± 0.049 | 0.835 ± 0.04 | 0.595 ± 0.047
MFM223 BREAST | 1.04 ± 0.11 | 1.17 ± 0.072 | 1.07 ± 0.069 | 1.13 ± 0.12 | 0.775 ± 0.053 | 0.699 ± 0.011 | 0.755 ± 0.031 | 0.705 ± 0.079 | 1.13 ± 0.02 | 1.14 ± 0.1 | 1.13 ± 0.041 | 1.09 ± 0.085 | 0.87 ± 0.029 | 0.787 ± 0.037 | 0.748 ± 0.052 | 0.712 ± 0.025
MG63 BONE | 1.03 ± 0.052 | 1.04 ± 0.032 | 1.05 ± 0.034 | 1.06 ± 0.058 | 1.03 ± 0.03 | 1.02 ± 0.028 | 0.975 ± 0.031 | 0.938 ± 0.023 | 1.03 ± 0.034 | 1.061 ± 0.0049 | 1.06 ± 0.031 | 1.06 ± 0.033 | 1.023 ± 0.001 | 1.024 ± 0.01 | 0.939 ± 0.027 | 0.879 ± 0.019
MHM BONE | 1.02 ± 0.025 | 1.02 ± 0.035 | 1.05 ± 0.015 | 1.06 ± 0.051 | 1.06 ± 0.039 | 1.074 ± 0.0062 | 1.09 ± 0.022 | 1.07 ± 0.041 | 1.001 ± 0.0057 | 1.02 ± 0.014 | 1.04 ± 0.022 | 1.02 ± 0.021 | 1.1 ± 0.018 | 1.052 ± 0.0081 | 1.04 ± 0.018 | 1.02 ± 0.028
NCIH441 LUNG | 1.06 ± 0.08 | 0.973 ± 0.12 | 1.09 ± 0.064 | 1.01 ± 0.06 | 0.992 ± 0.051 | 0.809 ± 0.022 | 0.996 ± 0.022 | 0.923 ± 0.1 | 1.02 ± 0.14 | 1.11 ± 0.052 | 0.998 ± 0.034 | 1.06 ± 0.068 | 1.02 ± 0.042 | 0.98 ± 0.037 | 0.98 ± 0.064 | 1.01 ± 0.042
